Measurements published in article PMC4751939, “Antileishmanial Activity of Compounds Derived from the Medicines for Malaria Venture Open Access Box against Intracellular Leishmania major Amastigotes” (The American Journal of Tropical Medicine and Hygiene, 2016).
Read-outs that look alike come from different tables or passages of the source.

Key:
Format in all cases: cell-based
HepG2 cells = assay: MTT cytotoxicity assay; details: 48-hour incubation
Description: (§1) An 3-(4,5-dimethylthiazol-2-yl)-2,5-diphenyltetrazolium bromide (MTT) cytotoxicity counter assay was used to test all compounds from the MMV Malaria Box for cytotoxicity. The 384-well MTT cytotoxicity assay is a modification of the MTT method described by Ferrari and others[29] optimized for 384-well throughput. HepG2 target cells for this assay were cultured in […]. The HepG2 target cells for this assay were cultured as follows: HepG2 cells were cultured in complete Minimal Essential Medium (MEM; catalog no. 11090-099, Gibco-Invitrogen) prepared by supplementing MEM with 0.19% sodium bicarbonate (catalog no. 25080-094, Gibco-BRL), 10% HIFBS (catalog no. 16000-036, Gibco-Invitrogen, Grand Island, NY), 2 mM L-glutamine (catalog no. 25030-081, Gibco-Invitrogen), 0.1 mM MEM nonessential amino acids (catalog no. 11140-050, Gibco-Invitrogen), 0.009 mg/mL insulin (catalog no. I1882, Sigma), 1.76 mg/mL bovine serum albumin (catalog no. A1470, Sigma), 20 units/mL penicillin–streptomycin (catalog no. 15140-148, Gibco-Invitrogen), and 0.05 mg/mL gentamycin (catalog no. 15710-064, Gibco-Invitrogen). HepG2 cells cultured in complete MEM were first washed with 1× Hank's Balanced Salt Solution (catalog no. 14175-095, Invitrogen), trypsinized using a 0.25% trypsin/ethylenediaminetetraacetic acid solution (catalog no. 25200-106, Invitrogen), assessed for viability using trypan blue, and resuspended at 250,000 cells/mL. Drug plates were prepared with the Tecan EVO Freedom using sterile 96-well plates containing 12 duplicate 1.6-fold serial dilutions of each test compound suspended in DMSO. Of diluted test compound, 4.25 μL was then added to the 38.3 μL of media in each well providing a 10-fold final dilution of compound. Compounds were tested from a range of 57 to 10,000 ng/mL for all assays. The 4-azaindolo[2,1-b]quinazoline-6,12-dione was used as a toxicity control. After a 48-hour incubation period, 8 μL of a 1.5 mg/mL solution of MTT diluted in complete MEM media was added to each well. All plates were subsequently incubated in the dark for 1 hour at room temperature. After incubation, the media and drugs in each well was removed by shaking plate over sink, the plates were then left to dry in hood for 15 minutes. Next, 30 μL of isopropanol acidified by addition of hydrochloric acid at a final concentration of 0.36% was added to dissolve the formazan dye crystals created by reduction of MTT. Plates are put on a three-dimensional rotator for 15–30 minutes. Absorbance was determined in all wells using a Tecan icontrol 1.6 Infinite plate reader. The IC50 determinations were then generated for each toxicity dose–response test using GraphPad Prism (GraphPad Software Inc., San Diego, CA) using the nonlinear regression (sigmoidal dose–response/variable slope) equation.

[1] = molecular target: intracellular Leishmania major amastigotes (luciferase-expressing, in RAW 264.7 macrophages); assay: Luciferase-expressing intracellular L. major amastigote-macrophage dose-response assay
Description: Macrophages were harvested from culture by removing all spent media, adding in 10 mL of fresh media, scraping adherent macrophages from the culture flask, and counting macrophages using trypan blue. The cells were resuspended at 2.0 × 10^5 cells/mL, and then dispensed in a volume of 50 μL to yield a final concentration of 10,000 macrophages/well in 384-well tissue culture–treated sterile white plates (Nunc/Thermo Fisher, Rochester, NY) using a Tecan EVO Freedom robotics system (Tecan U.S., Durham, NC). The plates were then incubated at 37°C in 5% CO2 atmosphere for 24 hours. After incubation, the media was removed from each well using the Tecan EVO Freedom robot, and 1 × 10^5 transfected L. major promastigotes were added to each well in a volume of 50 μL in DMEM/heat-inactivated fetal bovine serum (HIFBS) media and allowed to invade the macrophages. After overnight incubation, the media was removed from each well using the Tecan Freedom EVO robot, and each well was subsequently washed three times with 40 μL of fresh DMEM/HIFBS medium to remove all extracellular promastigotes. After the third wash, 69.2 μL of DMEM/HIFBS medium was added to each well using the Tecan EVO Freedom robot. Drug plates were prepared with the Tecan EVO Freedom using sterile 96-well plates containing 12 duplicate 2-fold serial dilutions of each test compound suspended in dimethyl sulfoxide (DMSO) for dose–response determinations. Of diluted test compound, 7.8 μL was added to the 69.2 μL media present in each well providing a 10-fold final dilution of compound. The final concentration range tested was 0.0005–1 μM for all assays. The plates were placed in a modular incubator chamber (Billups-Rothenburg, Del Mar, CA) that contained a humidity source, consisting of soaked gauze in a weigh boat, which was placed in the bottom of the chamber. Both valves on the system were opened and using a vent filter (Millipore, Billerica, MA), attached to the one valve, mixed gas containing 5% O2, 5% CO2, and a balance of nitrogen was allowed to pass through the system for 60 seconds. After 60 seconds, the exit valve was closed and the mixed gas was allowed to flow into the chamber for 10 seconds. At that point the remaining valve was closed. Chambers were gassed every other day. The chambers were incubated at 37°C for 96 hours. After 96 hours of incubation, 7.5 μL luciferin solution (Caliper Life Science, Hopkinton, MA) diluted to 150 μg/mL was added to each well, and the plates were incubated for 30 minutes at 37°C in the dark. Each plate was read using an Infinite M200 plate reader (Tecan Inc., Durham, NC).
The 50% inhibitory concentrations (IC50) were then generated for each dose–response test using GraphPad Prism (GraphPad Software Inc., San Diego, CA) using the nonlinear regression (sigmoidal dose–response/variable slope) equation.

MTT cytotoxicity assay = details: human, HepG2 cells, 48-hour incubation
Description: as §1

[2] = Leishmania major, RAW264.7, transgenic luciferase expressing intracellular L. major amastigote-macrophage parasites, 96 hours, read-out: Geometric mean L. major IC50 ± SD (n)
[3] = Leishmania major, RAW264.7, MMV Malaria Box L. major hits, intracellular amastigotes, 96 hours, read-out: IC50
[4] = Leishmania major, RAW264.7, rounded values quoted in the discussion, read-out: L. major amastigote-macrophage IC50

Compound | IC50 at 48 h (MTT cytotoxicity assay) [nM] | IC50 [1, 3] [nM] | also measured
2-{2-[(4-nitrophenyl)methylidene]hydrazin-1-yl}-1H-1,3-benzodiazole [MMV666023] |  |  | IC50 (HepG2 cells): 1300 nM; IC50 ([1]; MMV Malaria Box L. major hits, intracellular amastigotes, 96 hours, read-out: IC50): 91.7 nM; IC50 ([1]; rounded values quoted in the discussion, read-out: L. major amastigote-macrophage IC50): 92 nM
C[C@@H]1[C@H](O)[C@@H](C)/C=C/C=C/C=C/C=C/C=C/C=C/C=C/[C@H](O[C@@H]2O[C@H](C)[C@@H](O)[C@H](N)[C@@H]2O)C[C@@H]2O[C@](O)(C[C@@H](O)C[C@@H](O)[C@H](O)CC[C@@H](O)C[C@@H](O)CC(=O)O[C@H]1C)C[C@H](O)[C@H]2C(=O)O [Amphotericin B, reference compound] |  |  | IC50 [1, 2]: 27 ± 10 nM
CC(=O)N1CCN(c2ccc(OCC3COC(Cn4ccnc4)(c4ccc(Cl)cc4Cl)O3)cc2)CC1 (stereo not drawn) [Ketoconazole, reference compound] |  |  | IC50 [1, 2]: 19800 ± 3900 nM
CCCCCn1c(=N)n(CC(O)COc2cccc(C)c2)c2ccccc21 (stereo not drawn) [MMV000444, 1-(2-imino-3-pentylbenzimidazol-1-yl)-3-(3-methylphenoxy)propan-2-ol] | 4130 | 267 | 
c1ccc(CNc2nc(Nc3ccccc3)nc3ccccc23)cc1 [MMV006169, N-phenyl-N′-(phenylmethyl)quinazoline-2,4-diamine] | 5660 | 467 | 
Cc1ccccc1OCCSc1nc2ccc(NC(=O)c3cccs3)cc2s1 [MMV007396, N-[2-[2-(2-methylphenoxy)ethylsulfanyl]-1,3-benzothiazol-6-yl]thiophene-2-carboxamide] | 3500 | 120 | 
COc1ccc(CCNC(=O)c2cc(S(=O)(=O)N3CC(C)CC(C)C3)ccc2Sc2ccc(F)cc2)cc1OC (stereo not drawn) [MMV007557, N-[2-(3,4-dimethoxyphenyl)ethyl]-5-(3,5-dimethylpiperidin-1-yl)sulfonyl-2-(4-fluorophenyl)sulfanylbenzamide] | > 6060 | 180 | 
Cc1ccc(Cn2c(N3CCC(C(=O)NCc4cccs4)CC3)nc3ccccc32)cc1 [MMV007564, 1-[1-[(4-methylphenyl)methyl]benzimidazol-2-yl]-N-(thiophen-2-ylmethyl)piperidine-4-carboxamide] | > 6060 | 60.8 | IC50 [1, 4]: 61 nM
CCCCN(CCCC)S(=O)(=O)c1ccc(NC(=O)c2ccco2)cc1 [MMV007881, N-[4-(dibutylsulfamoyl)phenyl]furan-2-carboxamide] | 5600 | 418 | 
Cc1c(C)n(Cc2ccc(F)cc2)c2ccc(C(=O)NCc3ccco3)cc12 [MMV008149, 1-[(4-fluorophenyl)methyl]-N-(furan-2-ylmethyl)-2,3-dimethylindole-5-carboxamide] | 3260 | 229 | 
C[n+]1c2ccccc2nc2ccc(NCCO)cc21 [MMV396693, 2-[(10-methylphenazin-10-ium-2-yl)amino]ethanol] | 5660 |  | IC50 ([1]; Leishmania major, RAW264.7, 96 h): 53.4 nM
CCOC(=O)c1cn(CC)c2cc(N3CCCCC3)c(F)cc2c1=O [MMV665827, ethyl 1-ethyl-6-fluoro-4-oxo-7-piperidin-1-ylquinoline-3-carboxylate] | 1720 | 478 | 
COc1ccc(CCN2CCC(CN(C)Cc3cnn(-c4ccccc4)c3)CC2)cc1 [MMV666069] | 5820 | 366 | 
O=C(NC(c1ccccc1)c1ccc2cccnc2c1O)c1ccccc1 (stereo not drawn) [MMV666080, N-[(8-hydroxyquinolin-7-yl)-phenylmethyl]benzamide] | > 6060 | 14.9 | IC50 [1, 4]: 15 nM
O=[N+]([O-])c1ccc(C=NNc2nc3ccccc3[nH]2)cc1 [MMV666607, 2-{2-[(4-nitrophenyl)methylidene]hydrazin-1-yl}-1H-1,3-benzodiazole] | > 6060 | 134 | IC50 [1, 4]: 134 nM
CCOc1ccc(N2C(N)=NC(N)=NC2(C)C)cc1 [MMV667486, 1-(4-ethoxyphenyl)-6,6-dimethyl-1,3,5-triazine-2,4-diamine] | > 6060 | 193 | 
CCCCCCCCCCCCCCCCOP(=O)([O-])OCC[N+](C)(C)C [Miltefosine, reference compound] |  |  | IC50 [1, 2]: 550 ± 30 nM
NC[C@@H]1O[C@H](O[C@H]2[C@@H](O)[C@H](O[C@@H]3[C@@H](O)[C@H](N)C[C@H](N)[C@H]3O[C@H]3O[C@H](CO)[C@@H](O)[C@H](O)[C@H]3N)O[C@@H]2CO)[C@H](N)[C@@H](O)[C@@H]1O [Paromomycin, reference compound] |  |  | IC50 [1, 2]: 780 ± 310 nM
N=C(N)c1ccc(OCCCCCOc2ccc(C(=N)N)cc2)cc1 [Pentamidine, reference compound] |  |  | IC50 [1, 2]: 3420 ± 1700 nM
O=C(O)[C@@H]1[O][Sb](=[O])([O][Sb]2(=[O])[O][C@H]([C@H](O)CO)[C@H](O)[C@H](C(=O)O)[O]2)[O][C@H]([C@H](O)CO)[C@@H]1O.[Na+].[Na+].[Na+] (stereo partly drawn) [Pentostam, reference compound] |  |  | IC50 ([1]; transgenic luciferase expressing intracellular L. major amastigote-macrophage parasites, 96 hours, read-out: Geometric mean L. major IC50 ± SD (n)): 9080 ± 350 nM
CCN(CC)CCCCCCNc1cc(OC)cc2c(C)ccnc12 [Sitamaquine, reference compound] |  |  | IC50 [1, 2]: 10000 ± 370 nM
